From US20250019387A1 (Frontier Medicines Corporation, priority 0001, published 2025)

The molecules below were run against KRAS G12C and cRAF (Ras-binding domain) interaction (Homo sapiens (Human), UniProt P01116, C118S/C51S/C80L/G12C) (assay: Inhibition of KRAS G12C and cRAF binding (AlphaScreen)). Conditions: GMPPNP-loaded KRAS G12C, 19-20 hours incubation with compound; read-out: IC50 (Inhibition of KRAS G12C and cRAF Binding).
Method in brief: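 IC50 values come from 4-parameter nonlinear regression of AlphaScreen signal (680 nm excitation, 570 nm emission). Compound plates sat 19-20 h at room temperature before RBD and donor/acceptor beads were added in Hepes pH 7.4 buffer with 150 mM NaCl, 5 mM MgCl2, 2% DMSO for 60-90 min; biotin-AviTag-GST replaced RBD to flag assay-technology interferers.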

Sequence of KRAS G12C and cRAF (Ras-binding domain) interaction (P01116 other isoform, or with tags, fused parts or gaps G12C/C51S/C80L/C118S): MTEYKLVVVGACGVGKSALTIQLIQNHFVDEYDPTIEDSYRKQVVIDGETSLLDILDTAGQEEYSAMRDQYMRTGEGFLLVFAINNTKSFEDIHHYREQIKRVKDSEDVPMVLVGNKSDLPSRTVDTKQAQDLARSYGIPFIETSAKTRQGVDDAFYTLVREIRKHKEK

IC50	SMILES
100 to 500 nM	COC(=O)/C=C/C(=O)NCCN(C)c1nc(OC[C@@H]2CCCN2C)nc2c1CCN(c1cccc3cccc(Cl)c13)C2 [Example 22, methyl(S,E)-4-((2-((7-(8-chloronaphthalen-1-yl)-2-((1-methylpyrrolidin-2-yl)methoxy)-5,6,7,8-tetrahydropyrido[3,4-d]pyrimidin-4-yl)(methyl)amino)ethyl)amino)-4-oxobut-2-enoate]
10 to 100 nM	CN(CCNC(=O)/C=C/S(C)(=O)=O)c1nc(OC[C@@H]2CCCN2C)nc2c1CCN(c1cccc3cccc(Cl)c13)C2 [Example 23, (S,E)-N-(2-((7-(8-chloronaphthalen-1-yl)-2-((1-methylpyrrolidin-2-yl)methoxy)-5,6,7,8-tetrahydropyrido[3,4-d]pyrimidin-4-yl)(methyl)amino)ethyl)-3-(methylsulfonyl)acrylamide]
< 10 nM	COC(=O)/C=C/C(=O)N1CCC(N(C)c2nc(OC[C@@H]3CCCN3C)nc3c(F)c(-c4cccc5cccc(Cl)c45)ncc23)C1 (stereo partly drawn) [Example 24, methyl(E)-4-(3-((7-(8-chloronaphthalen-1-yl)-8-fluoro-2-(((S)-1-methylpyrrolidin-2-yl)methoxy)pyrido[4,3-d]pyrimidin-4-yl)(methyl)amino)pyrrolidin-1-yl)-4-oxobut-2-enoate]
< 10 nM	COC(=O)/C=C/C(=O)N1CC(CN(C)c2nc(OCC34CCCN3CCC4)nc3c(F)c(-c4cccc5cccc(Cl)c45)ncc23)C1 [Example 25, methyl(E)-4-(3-(((7-(8-chloronaphthalen-1-yl)-8-fluoro-2-((tetrahydro-1H-pyrrolizin-7a(5H)-yl)methoxy)pyrido[4,3-d]pyrimidin-4-yl)(methyl)amino)methyl)azetidin-1-yl)-4-oxobut-2-enoate]
> 500 nM	COC(=O)/C=C/C(=O)N1CC[C@H](N(C)c2nc(OC[C@@H]3CCCN3C)nc3c(F)c(-c4cccc5cccc(Cl)c45)ncc23)C1 [Example 26, methyl(E)-4-((S)-3-((7-(8-chloronaphthalen-1-yl)-8-fluoro-2-(((S)-1-methylpyrrolidin-2-yl)methoxy)pyrido[4,3-d]pyrimidin-4-yl)(methyl)amino)pyrrolidin-1-yl)-4-oxobut-2-enoate]
< 10 nM	COC(=O)/C=C/C(=O)N1CC[C@@H](N(C)c2nc(OC[C@@H]3CCCN3C)nc3c(F)c(-c4cccc5cccc(Cl)c45)ncc23)C1 [Example 27, methyl(E)-4-((R)-3-((7-(8-chloronaphthalen-1-yl)-8-fluoro-2-(((S)-1-methylpyrrolidin-2-yl)methoxy)pyrido[4,3-d]pyrimidin-4-yl)(methyl)amino)pyrrolidin-1-yl)-4-oxobut-2-enoate]
10 to 100 nM	CN(CC1CN(C#N)C1)c1nc(OCC23CCCN2CCC3)nc2c(F)c(-c3cccc4cccc(Cl)c34)ncc12 [Example 28, 3-(((7-(8-chloronaphthalen-1-yl)-8-fluoro-2-((tetrahydro-1H-pyrrolizin-7a(5H)-yl)methoxy)pyrido[4,3-d]pyrimidin-4-yl)(methyl)amino)methyl)azetidine-1-carbonitrile]
100 to 500 nM	CN(c1nc(OC[C@@H]2CCCN2C)nc2c1CCN(c1cccc3cccc(Cl)c13)C2)C1CCN(C#N)C1 (stereo partly drawn) [Example 29, 3-((7-(8-chloronaphthalen-1-yl)-2-(((S)-1-methylpyrrolidin-2-yl)methoxy)-5,6,7,8-tetrahydropyrido[3,4-d]pyrimidin-4-yl)(methyl)amino)pyrrolidine-1-carbonitrile]
> 500 nM	CN(CC1CN(C#N)C1)c1nc(OC[C@@H]2CCCN2C)nc2c1CCN(c1cccc3cccc(Cl)c13)C2 [Example 30, (S)-3-(((7-(8-chloronaphthalen-1-yl)-2-((1-methylpyrrolidin-2-yl)methoxy)-5,6,7,8-tetrahydropyrido[3,4-d]pyrimidin-4-yl)(methyl)amino)methyl)azetidine-1-carbonitrile]
> 500 nM	CN(CC1CCN(C#N)C1)c1nc(OC[C@@H]2CCCN2C)nc2c1CCN(c1cccc3cccc(Cl)c13)C2 (stereo partly drawn) [Example 31, 3-(((7-(8-chloronaphthalen-1-yl)-2-(((S)-1-methylpyrrolidin-2-yl)methoxy)-5,6,7,8-tetrahydropyrido[3,4-d]pyrimidin-4-yl)(methyl)amino)methyl)pyrrolidine-1-carbonitrile]
> 500 nM	CN1CCC[C@H]1COc1nc2c(c(N3CCC(CNC#N)CC3)n1)CCN(c1cccc3cccc(Cl)c13)C2 [Example 32, (S)-N-((1-(7-(8-chloronaphthalen-1-yl)-2-((1-methylpyrrolidin-2-yl)methoxy)-5,6,7,8-tetrahydropyrido[3,4-d]pyrimidin-4-yl)piperidin-4-yl)methyl)cyanamide]
100 to 500 nM	CN1CCC[C@H]1COc1nc2c(c(N(C)[C@@H]3CCN(C#N)C3)n1)CCN(c1cccc3cccc(Cl)c13)C2 [Example 33, (R)-3-((7-(8-chloronaphthalen-1-yl)-2-(((S)-1-methylpyrrolidin-2-yl)methoxy)-5,6,7,8-tetrahydropyrido[3,4-d]pyrimidin-4-yl)(methyl)amino)pyrrolidine-1-carbonitrile]
100 to 500 nM	CN(CCC1CN(C#N)C1)c1nc(OC[C@@H]2CCCN2C)nc2c1CCN(c1cccc3cccc(Cl)c13)C2 [Example 34, (S)-3-(2-((7-(8-chloronaphthalen-1-yl)-2-((l-methylpyrrolidin-2-yl)methoxy)-5,6,7,8-tetrahydropyrido[3,4-d]pyrimidin-4-yl)(methyl)amino)ethyl)azetidine-1-carbonitrile]
10 to 100 nM	CN(c1nc(OC[C@@H]2CCCN2C)nc2c(F)c(-c3cccc4cccc(Cl)c34)ncc12)C1CCN(C#N)C1 (stereo partly drawn) [Example 35, 3-((7-(8-chloronaphthalen-1-yl)-8-fluoro-2-(((S)-1-methylpyrrolidin-2-yl)methoxy)pyrido[4,3-d]pyrimidin-4-yl)(methyl)amino)pyrrolidine-1-carbonitrile]
10 to 100 nM	CN1CCC[C@H]1COc1nc(N(C)[C@@H]2CCN(C#N)C2)c2cnc(-c3cccc4cccc(Cl)c34)c(F)c2n1 [Example 36, (R)-3-((7-(8-chloronaphthalen-1-yl)-8-fluoro-2-(((S)-1-methylpyrrolidin-2-yl)methoxy)pyrido[4,3-d]pyrimidin-4-yl)(methyl)amino)pyrrolidine-1-carbonitrile]
100 to 500 nM	CN1CCC[C@H]1COc1nc2c(c(N3CC[C@@H]4CN(C#N)C[C@@H]43)n1)CCN(c1cccc3cccc(Cl)c13)C2 [Example 37, (3aR,6aR)-1-(7-(8-chloronaphthalen-1-yl)-2-(((S)-1-methylpyrrolidin-2-yl)methoxy)-5,6,7,8-tetrahydropyrido[3,4-d]pyrimidin-4-yl)hexahydropyrrolo[3,4-b]pyrrole-5(1H)-carbonitrile]
> 500 nM	C[C@@H]1C[C@@H](N(C)c2nc(OC[C@@H]3CCCN3C)nc3c2CCN(c2cccc4cccc(Cl)c24)C3)CN1C#N [Example 38, (2R,4R)-4-((7-(8-chloronaphthalen-1-yl)-2-(((S)-1-methylpyrrolidin-2-yl)methoxy)-5,6,7,8-tetrahydropyrido[3,4-d]pyrimidin-4-yl)(methyl)amino)-2-methylpyrrolidine-1-carbonitrile]
100 to 500 nM	CN(c1nc(OCC23CCCN2CCC3)nc2c1CCN(c1cccc3cccc(Cl)c13)C2)[C@@H]1CCN(C#N)C1 [Example 39, (R)-3-((7-(8-chloronaphthalen-1-yl)-2-((tetrahydro-1H-pyrrolizin-7a(5H)-yl)methoxy)-5,6,7,8-tetrahydropyrido[3,4-d]pyrimidin-4-yl)(methyl)amino)pyrrolidine-1-carbonitrile]
10 to 100 nM	C=CC(=O)CN(C)c1nc(OC[C@@H]2CCCN2C)nc2c1CCN(c1cccc3cccc(Cl)c13)C2 [Example 40, (S)-1-((7-(8-chloronaphthalen-1-yl)-2-((1-methylpyrrolidin-2-yl)methoxy)-5,6,7,8-tetrahydropyrido[3,4-d]pyrimidin-4-yl)(methyl)amino)but-3-en-2-one]
10 to 100 nM	C=CC(=O)C1CN(c2nc(OC[C@@H]3CCCN3C)nc3c2CCN(c2cccc4cccc(Cl)c24)C3)C1 [Example 41, (S)-1-(1-(7-(8-chloronaphthalen-1-yl)-2-((1-methylpyrrolidin-2-yl)methoxy)-5,6,7,8-tetrahydropyrido[3,4-d]pyrimidin-4-yl)azetidin-3-yl)prop-2-en-1-one]
10 to 100 nM	C=CC(=O)C1CCN(c2nc(OC[C@@H]3CCCN3C)nc3c2CCN(c2cccc4cccc(Cl)c24)C3)CC1 [Example 42, (S)-1-(1-(7-(8-chloronaphthalen-1-yl)-2-((1-methylpyrrolidin-2-yl)methoxy)-5,6,7,8-tetrahydropyrido[3,4-d]pyrimidin-4-yl)piperidin-4-yl)prop-2-en-1-one]
10 to 100 nM	C=CC(=O)[C@@H]1[C@@H]2CN(c3nc(OC[C@@H]4CCCN4C)nc4c3CCN(c3cccc5cccc(Cl)c35)C4)C[C@@H]21 [Example 45, 1-((1R,5S,6R)-3-(7-(8-chloronaphthalen-1-yl)-2-(((S)-1-methylpyrrolidin-2-yl)methoxy)-5,6,7,8-tetrahydropyrido[3,4-d]pyrimidin-4-yl)-3-azabicyclo[3.1.0]hexan-6-yl)prop-2-en-1-one]
> 500 nM	C=CS(=O)(=O)CCCN(C)c1nc(OC[C@@H]2CCCN2C)nc2c1CCN(c1cccc3cccc(Cl)c13)C2 [Example 46, (S)-7-(8-chloronaphthalen-1-yl)-N-methyl-2-((1-methylpyrrolidin-2-yl)methoxy)-N-(3-(vinylsulfonyl)propyl)-5,6,7,8-tetrahydropyrido[3,4-d]pyrimidin-4-amine]
10 to 100 nM	C=CS(=O)(=O)CCN(C)c1nc(OC[C@@H]2CCCN2C)nc2c1CCN(c1cccc3cccc(Cl)c13)C2 [Example 47, (S)-7-(8-chloronaphthalen-1-yl)-N-methyl-2-((1-methylpyrrolidin-2-yl)methoxy)-N-(2-(vinylsulfonyl)ethyl)-5,6,7,8-tetrahydropyrido[3,4-d]pyrimidin-4-amine]
